Where a name gives a salt, the structure may show the parent alone. Where a SMILES comes first, the peptide text is derived from it. [ ]: non-standard residue; d: D form. Trx = NC[C@H]1CC[C@H](C(=O)O)CC1; Sar = CNCC(=O)O
Assays:
[1] = system: hydrochloric acid ulcer; assay: Action against hydrochloric acid ulcer; assay type: in vivo, Wistar-strain male rats; details: po, 1 h; rat, 100 mg/kg peroral administration, 30 min before 0.6 N-HCl; ulcer area; read-out: Anti-ulcer action (hydrochloric acid ulcer model), Inhibition rate against non-administered animal
Protocol: (1) Action against hydrochloric acid ulcer Wistar-strain male rats (weight 180 g, 6 to 7 rats per group) were starved for 18 hours and left without water for 4 hours before the test. The test drug was formed into an aqueous solution or suspended in an aqueous solution of 0.5% carboxymethyl cellulose and administered orally at a volume of 0.5 ml/100 g, and 30 minutes after administration, 1 ml of 0.6 N-HCl was orally administered. One hour after the administration, the stomach was excised and injected with 5 ml of 5% formalin solution. After the formalin fixation for 10 min., the stomach was cut open along the greater curvature, and the area (mm^2) of an ulcer generated at the corpus of stomach was measured. The total sum of the area of ulcer generated per rat was compared with that of the control group. The control group was administered with water or a 0.5% aqueous carboxymethyl cellulose solution. The Ulcer Index was determined as the inhibition ratio (%).

[2] = system: restrictive water immersion stress ulcer; assay: Action against restrictive water immersion stress ulcer; assay type: in vivo, Wistar-strain male rats; details: po; rat, 100 mg/kg peroral administration, 7 hours water immersion stress at 23° C.; ulcer length; read-out: Anti-ulcer action (stress ulcer), Inhibition rate against non-administered animal
Protocol: (2) Action against restrictive water immersion stress ulcer Wistar-strain male rats (weight 180 g, 6 to 8 rats per group) were starved for 18 hours before the test. The test drug was administered orally by the same method as used in (1). Thirty minutes after the administration, the rats were placed in a restrictive stress cage, and immersed to the xiphoideus process of the rat in water of 23° C. After the loading stress for 7 hours, the stomach was excised and, fixed in formalin by the same method as used in (1), and the length (mm) of the ulcer was measured. The total length of an ulcer generated per rat was compared with that of the control group. An Ulcer Index was determined as the inhibition ratio (%).

Row | SMILES | inhibition in vivo at 100 mg/kg [1] [%] | inhibition in vivo at 100 mg/kg [2] [%]
1 | CC1CCC(NC(=O)[C@H](Cc2ccccc2)NC(=O)c2ccc(NC(=N)N)cc2)CC1 (mixture of isomers) [Compound 12, N-(4-guanidinobenzoyl)-L-phenylalanine 4-cis/trans-methylcyclohexylamide hydrochloride] | 89.4 | 65.8
2 | CC(=O)c1ccc(NC(=O)C(Cc2cccc(Oc3ccccc3)c2)NC(=O)[C@H]2CC[C@H](CN)CC2)cc1 (mixture of isomers) [Compound 32, N-(trans-4-aminomethylcyclohexylcarbonyl)-3-phenoxy-DL-phenylalanine 4-acetylanilide hydrochloride] | 86.4 | 67.4
3 | NC[C@H]1CC[C@H](C(=O)N[C@@H](Cc2ccccc2)C(N)=O)CC1 [Compound 1, N-[trans-4-aminomethylcyclohexyl-carbonyl]-L-phenylalanine amide hydrochloride] | 77.1 | 88.2
4 | NCc1ccc(C(=O)N[C@@H](Cc2ccccc2)C(N)=O)cc1 [Compound 2, N-(4-aminomethylbenzoyl)-L-phenyl-alanineamide hydrochloride] | 58.2 | –
5 | CCOC(=O)c1ccccc1NC(=O)[C@H](Cc1ccccc1)NC(=O)[C@H]1CC[C@H](CN)CC1 [Compound 3] | 91.4 | 52.2
6 | CCOC(=O)C1CCC(NC(=O)[C@H](Cc2ccccc2)NC(=O)[C@H]2CC[C@H](CN)CC2)CC1 (some centres unmarked) [Compound 4] | 71.4 | 74.6
7 | CCOC(=O)CNC(=O)[C@H](Cc1ccccc1)NC(=O)[C@H]1CC[C@H](CN)CC1 [Compound 5] (H-[Trx]-Phe-Gly-OEt) | 53.3 | 76
8 | CCOC(=O)C1CCCC(NC(=O)[C@H](Cc2ccccc2)NC(=O)[C@H]2CC[C@H](CN)CC2)C1 (some centres unmarked) [Compound 6] | 77.4 | –
9 | CNC(=O)[C@H](Cc1ccccc1)NC(=O)[C@H]1CC[C@H](CN)CC1 [Compound 7, N-(trans-4-aminomethylcyclohexyl-carbonyl)-L-phenylalanine methylamide hydrochloride] | 52.6 | –
10 | CC(=O)c1ccc(NC(=O)[C@H](Cc2ccccc2)NC(=O)[C@H]2CC[C@H](CN)CC2)cc1 [Compound 8] | 73.2 | 65
11 | CN(C)C(=O)[C@H](Cc1ccccc1)NC(=O)[C@H]1CC[C@H](CN)CC1 [Compound 9, N-(trans-4-aminomethylcyclohexyl-carbonyl)-L-phenylalanine dimethylamide hydrochloride] | 73.6 | 77.6
12 | CCOC(=O)c1ccc(CNC(=O)[C@H](Cc2ccccc2)NC(=O)[C@H]2CC[C@H](CN)CC2)cc1 [Compound 10] | 60.4 | 86.1
13 | CCOC(=O)C1CCN(C(=O)[C@H](Cc2ccccc2)NC(=O)[C@H]2CC[C@H](CN)CC2)CC1 [Compound 11] | 68.4 | 85.2
14 | NC[C@H]1CC[C@H](C(=O)N[C@@H](Cc2ccccc2)C(=O)Nc2ccc(C(N)=O)cc2)CC1 [Compound 13, N-(trans-4-aminomethylcyclohexyl-carbonyl)-L-phenylalanine 4-carbamoylanilide hydrochloride] | 85.7 | 64.8
15 | NC[C@H]1CC[C@H](C(=O)N[C@@H](Cc2ccccc2)C(=O)Nc2ccc(C(=O)O)cc2)CC1 [Compound 14, N-(trans-4-aminomethylcyclohexylcarbonyl)-L-phenylalanine 4-hydroxycarbonylanilide hydrochloride] | 74.8 | –
16 | CC(C)(C)NC(=O)[C@H](Cc1ccccc1)NC(=O)[C@H]1CC[C@H](CN)CC1 [Compound 15] | 73.1 | 76.4

Row | SMILES | inhibition in vivo at 100 mg/kg [1] [%] | inhibition in vivo at 100 mg/kg [2] [%]
17 | CC(=O)c1ccc(NC(=O)[C@H](Cc2ccccc2)NC(=O)c2ccc(CN)cc2)cc1 [Compound 16, N-(4-aminomethylbenzoyl)-L-phenylalanine 4-acetylanilide hydrochloride] | 96.6 | –
18 | CN(C)C(=O)[C@H](Cc1ccccc1)NC(=O)c1ccc(CN)cc1 [Compound 17] | 57.5 | –
19 | CCOC(=O)c1cccc(NC(=O)[C@H](Cc2ccccc2)NC(=O)[C@H]2CC[C@H](CN)CC2)c1 [Compound 18] | 89.2 | –
20 | CN(C)C(=O)[C@H](Cc1ccccc1)NC(=O)[C@H]1CC[C@H](CNC(=N)N)CC1 [Compound 19, N-(trans-4-guanidinomethylcyclohexylcarbonyl)-L-phenylalanine dimethylamide methanesulfonate] | 52.5 | –
21 | CCOC(=O)[C@H](CO)NC(=O)[C@H](Cc1ccccc1)NC(=O)[C@H]1CC[C@H](CN)CC1 [Compound 20, Ethyl N-N-(trans-4-aminomethylcyclohexylcarbonyl)-L-phenylalanyl-L-serinate hydrochloride] (H-[Trx]-Phe-Ser-OEt) | 54.3 | 70
22 | CCOC(=O)c1ccc(NC(=O)[C@H](Cc2ccccc2)NC(=O)[C@H]2CC[C@H](CN)CC2)cc1 [Compound 21] | 89.8 | –
23 | CN(C)C(=O)[C@H](Cc1ccccc1)NC(=O)c1ccc(C(=N)N)cc1 [Compound 22, N-(4-amidinobenzoyl)-L-phenylalanine dimethylamide hydroiodide] | 86 | 76.2
24 | CNC(=O)c1ccc(NC(=O)[C@H](Cc2ccccc2)NC(=O)[C@H]2CC[C@H](CN)CC2)cc1 [Compound 23, N-(trans-4-aminomethylcyclohexylcarbonyl)-L-phenylalanine 4-methylcarbamoylanilide hydrochloride] | 79.9 | –
25 | CN(C)C(=O)c1ccc(NC(=O)[C@H](Cc2ccccc2)NC(=O)[C@H]2CC[C@H](CN)CC2)cc1 [Compound 24] | 82.6 | 70.6
26 | CCOC(=O)CN(C)C(=O)[C@H](Cc1ccccc1)NC(=O)[C@H]1CC[C@H](CN)CC1 [Compound 25] (H-[Trx]-Phe-[Sar]-OEt) | 57.3 | –
27 | NC[C@H]1CC[C@H](C(=O)N[C@@H](Cc2ccccc2)C(=O)Nc2cccc(C(N)=O)c2)CC1 [Compound 26] | 80.8 | –
28 | NCc1ccc(C(=O)N[C@@H](Cc2ccccc2)C(=O)Nc2ccc(C(N)=O)cc2)cc1 [Compound 27, N-(4-aminomethylbenzoyl)-L-phenylalanine 4-carbamoylanilide hydrochloride] | 78.1 | –
29 | N=C(N)c1ccc(C(=O)N[C@@H](Cc2ccccc2)C(=O)Nc2ccc(C(N)=O)cc2)cc1 [Compound 28, N-(4-amidinobenzoyl)-L-phenylalanine 4-carbamoylanilide methanesulfonate] | 69.8 | 57.4
30 | CC(=O)c1ccc(NC(=O)[C@H](Cc2ccccc2)NC(=O)c2ccc(C(=N)N)cc2)cc1 [Compound 29] | 81 | 83.7
31 | CCOC(=O)CCNC(=O)[C@H](Cc1ccccc1)NC(=O)[C@H]1CC[C@H](CN)CC1 [Compound 30] | 67.5 | –
32 | NC[C@H]1CC[C@H](C(=O)N[C@@H](Cc2ccc(OCc3ccccc3)cc2)C(=O)Nc2cccnc2)CC1 [Compound 31] | 92.3 | 60
